Experimental findings from ChEMBL document CHEMBL1156243 are described below.

Structures are written as SMILES. Calls of active or inactive are those of the source.

A short description of experiment [1]: Binding affinity to amyloid beta (1 to 42) fibrils by change in fluorescence at 100 uM after 10 mins.
Experiment [2] in a line: Binding affinity to amyloid beta (1 to 42) oligomers by change in fluorescence at 100 uM after 10 mins.
The nature of experiment [3]: Inhibition of amyloid beta (1 to 42) aggregation […] after 48 hrs by fluorescence imaging.
Experiment [4] is described as follows: Binding affinity to amyloid beta (1 to 42) fibrils by change in fluorescence at 100 uM after 2 mins.
Experiment [5] in a line: Binding affinity to amyloid beta (1 to 42) oligomers by change in fluorescence at 100 uM after 2 mins.
The nature of experiment [6]: Binding affinity to amyloid beta (1 to 42) fibrils by fluorescence quenching after 30 mins.
Experiment [7] can be described thus: Binding affinity to amyloid beta (1 to 42) oligomers by fluorescence quenching after 30 mins.

For the compound `Cc1ccc2[nH]c(C(=O)O)cc2c1`, the result in experiment [1] and in experiment [2] was Active. Besides, the inhibition entry in experiment [3] is “inactive”.

`N[C@@H](Cc1c[nH]c2ccccc12)C(=O)O`: the result in experiment [1] and in experiment [2] was Active. In experiment [3], the inhibition result was “inactive”.

As to `O=S(=O)(O)c1cccc2c(-c3ccc(Nc4ccccc4)c4c(S(=O)(=O)O)cccc34)ccc(Nc3ccccc3)c12`, the result in experiment [4] and in experiment [5] was Active.

Consider `COc1ccc2[nH]cc(CCNC(C)=O)c2c1`, for which the outcome in experiment [1] and in experiment [2] was Active. Further, the inhibition entry in experiment [3] is “inactive”.

For the compound `O=C1c2c(O)cc(O)cc2O[C@H](c2ccc(O)c(O)c2)[C@H]1O`, the outcome in experiment [1] and in experiment [2] was inactive.

Consider `COc1cc(-c2ccc(/N=N/c3ccc4c(S(=O)(=O)O)cc(S(=O)(=O)O)c(N)c4c3O)c(OC)c2)ccc1/N=N/c1ccc2c(S(=O)(=O)O)cc(S(=O)(=O)O)c(N)c2c1O`, for which the outcome in experiment [1] and in experiment [2] was inactive.

Turning to `COc1ccc(/C=C/C(=O)c2ccccc2)cc1`, the result in experiment [1] and in experiment [2] was inactive.

Consider `c1ccc2[nH]ccc2c1`, for which the outcome in experiment [1], in experiment [2] and in experiment [7] was Active. Further, the outcome in experiment [6] was inactive. Moreover, in experiment [3], the inhibition result was “inactive”.

Turning to `C=C1c2c(Cl)ccc(O)c2C(=O)C2=C(O)[C@]3(O)C(=O)C(C(N)=O)=C(O)[C@@H](N(C)C)[C@@H]3[C@@H](O)[C@H]12.O=C(O)c1cc(S(=O)(=O)O)ccc1O`, the outcome in experiment [1] and in experiment [2] was Active.

Take `Nc1c2ccccc2nc2ccccc12`: the outcome in experiment [1] and in experiment [2] was Active.

Regarding `CCN(CC)c1ccc2c(-c3ccccc3C(C)=O)c3ccc(=[N+](CC)CC)cc-3oc2c1`, the result in experiment [1] and in experiment [2] was Active.

`O=C(c1ccccc1)c1ccc(O)c(O)c1O`: the outcome in experiment [1] and in experiment [2] was inactive.

Regarding `NCCc1c[nH]c2ccccc12`, the result in experiment [1] and in experiment [2] was Active.

As to `CNc1ccc2nc3ccc(N)cc3[s+]c2c1`, the result in experiment [1] and in experiment [2] was inactive.
